Data taken from US11452727B2, “Combination therapy for treating cancer” (Epizyme, Inc., priority 2017, dated 2022).

Assays:
Test in all cases: In vitro combination study with tazemetostat, cell proliferation (Cell Titer Glo)
A427 = settings: A427; 7 days tazemetostat pre-treatment, 6 days co-treatment with second agent
Method: (§1) Initial proliferation studies were performed to determine the IC50 of tazemetostat in each cell line. For the screen, tazemetostat was used at concentrations bracketed around the IC50 value. If 50% inhibitory concentration was not reached then tazemetostat was tested starting at 10 μM.
(§2) In order to study the effect of dual combination of tazemetostat and a second agent on cell proliferation, cells in log-linear phase growth rate were pre-treated with various concentrations of tazemetostat or DMSO for 7 days in flasks, plated in 384-well plates in the absence of compounds and co-treated on day 8 with tazemetostat or DMSO and the second agent serially diluted for additional 6 days (as depicted in FIG. 1). On day 15, plates were developed for endpoint analysis using Cell Titer Glo to measure ATP content, which was used as an indicator of cell viability. DMSO concentration was kept constant throughout the assay at 0.15% v/v.
(§3) All cell lines were obtained from American Type Culture Collection (ATCC; Rockville, Md.). […] A427, Calu-3, Calu-6 cell lines were cultured in EMEM+10% Fetal bovine serum (FBS)+1% v/v Penicillin/Streptomycin (P/S).

A549 = settings: 7 days tazemetostat pre-treatment, 6 days co-treatment with second agent
NCI-H1573 = settings: 7 days tazemetostat pre-treatment, 6 days co-treatment with second agent
NCI-H1703 = settings: 7 days tazemetostat pre-treatment, 6 days co-treatment with second agent
Method: as §1, §2

NCI-H1793 = settings: 7 days tazemetostat pre-treatment, 6 days co-treatment with second agent
Method: as §1, §2
(§4) NCI-H1573 was cultured in DMEM: F12 Medium containing the following components: 0.02 mg/ml insulin, 0.01 mg/ml transferrin, 25 nM sodium selenite, 50 nM Hydrocortisone, 1 ng/ml Epidermal Growth Factor, 0.01 mM ethanolamine, 0.01 mM phosphorylethanolamine, 100 pM triiodothyronine, 0.5% (w/v) bovine serum albumin, 0.5 mM sodium pyruvate, 4.5 mM L-glutamine and 1% v/v Pen/Strep.

NCI-H1993 = settings: 7 days tazemetostat pre-treatment, 6 days co-treatment with second agent
Method: as §1, §2

NCI-H2030 = settings: 7 days tazemetostat pre-treatment, 6 days co-treatment with second agent
NCI-H2110 = settings: 7 days tazemetostat pre-treatment, 6 days co-treatment with second agent
Method: as §1, §2

NCI-H2122 = settings: 7 days tazemetostat pre-treatment, 6 days co-treatment with second agent
Method: as §1, §2, §3

NCI-H23 = settings: 7 days tazemetostat pre-treatment, 6 days co-treatment with second agent
Method: as §1, §2, §3

NCI-H460 = settings: 7 days tazemetostat pre-treatment, 6 days co-treatment with second agent
NCI-H522 = settings: 7 days tazemetostat pre-treatment, 6 days co-treatment with second agent
Method: as §1, §2

NCI-H661 = settings: 7 days tazemetostat pre-treatment, 6 days co-treatment with second agent
NCI-H838 = settings: 7 days tazemetostat pre-treatment, 6 days co-treatment with second agent
Calu-3 = settings: 7 days tazemetostat pre-treatment, 6 days co-treatment with second agent
Method: as §1, §2, §4

Calu-6 = settings: 7 days tazemetostat pre-treatment, 6 days co-treatment with second agent
Method: as §1, §2

HCC827 = settings: 7 days tazemetostat pre-treatment, 6 days co-treatment with second agent
NCI-H1299 = settings: 7 days tazemetostat pre-treatment, 6 days co-treatment with second agent
Method: as §1, §2

C[C@]12C=CC(=O)C=C1CC[C@@H]1[C@@H]2[C@@H](O)C[C@@]2(C)[C@H]1CC[C@]2(O)C(=O)CO [Prednisolone, prednisolone]
combinatorial effect with tazemetostat (Loewe volume class) (A427): Add. (A value between −1 and 1 denoted “additivity”) | combinatorial effect with tazemetostat (Loewe volume class) (A549): Add. (A value between −1 and 1 denoted “additivity”) | combinatorial effect with tazemetostat (Loewe volume class) (NCI-H1573): Syn. (Loewe volumes greater than 1 denoted “synergy”) | combinatorial effect with tazemetostat (Loewe volume class) (NCI-H1703): No eff. | combinatorial effect with tazemetostat (Loewe volume class) (NCI-H1793): Syn. (Loewe volumes greater than 1 denoted “synergy”) | combinatorial effect with tazemetostat (Loewe volume class) (NCI-H1993): No eff. | combinatorial effect with tazemetostat (Loewe volume class) (NCI-H2030): No eff. | combinatorial effect with tazemetostat (Loewe volume class) (NCI-H2110): No eff. | combinatorial effect with tazemetostat (Loewe volume class) (NCI-H2122): Anta. (volumes <−1 denoted “antagonism”) | combinatorial effect with tazemetostat (Loewe volume class) (NCI-H23): No eff. | combinatorial effect with tazemetostat (Loewe volume class) (NCI-H460): Add. (A value between −1 and 1 denoted “additivity”) | combinatorial effect with tazemetostat (Loewe volume class) (NCI-H522): No eff. | combinatorial effect with tazemetostat (Loewe volume class) (NCI-H661): No eff. | combinatorial effect with tazemetostat (Loewe volume class) (NCI-H838): No eff. | combinatorial effect with tazemetostat (Loewe volume class) (Calu-3): No eff. | combinatorial effect with tazemetostat (Loewe volume class) (Calu-6): Syn. (Loewe volumes greater than 1 denoted “synergy”) | combinatorial effect with tazemetostat (Loewe volume class) (HCC827): Anta. (volumes <−1 denoted “antagonism”)

C=CC(=O)Nc1cc(Nc2nccc(-c3cn(C)c4ccccc34)n2)c(OC)cc1N(C)CCN(C)C [AZD9291]
combinatorial effect with tazemetostat (Loewe volume class) (A427): Anta. (volumes <−1 denoted “antagonism”) | combinatorial effect with tazemetostat (Loewe volume class) (A549): Add. (A value between −1 and 1 denoted “additivity”) | combinatorial effect with tazemetostat (Loewe volume class) (NCI-H1299): Add. (A value between −1 and 1 denoted “additivity”) | combinatorial effect with tazemetostat (Loewe volume class) (NCI-H1573): Add. (A value between −1 and 1 denoted “additivity”) | combinatorial effect with tazemetostat (Loewe volume class) (NCI-H1703): Add. (A value between −1 and 1 denoted “additivity”) | combinatorial effect with tazemetostat (Loewe volume class) (NCI-H1793): Syn. (Loewe volumes greater than 1 denoted “synergy”) | combinatorial effect with tazemetostat (Loewe volume class) (NCI-H1993): Add. (A value between −1 and 1 denoted “additivity”) | combinatorial effect with tazemetostat (Loewe volume class) (NCI-H2030): Add. (A value between −1 and 1 denoted “additivity”) | combinatorial effect with tazemetostat (Loewe volume class) (NCI-H2110): Syn. (Loewe volumes greater than 1 denoted “synergy”) | combinatorial effect with tazemetostat (Loewe volume class) (NCI-H2122): Anta. (volumes <−1 denoted “antagonism”) | combinatorial effect with tazemetostat (Loewe volume class) (NCI-H23): Add. (A value between −1 and 1 denoted “additivity”) | combinatorial effect with tazemetostat (Loewe volume class) (NCI-H460): Add. (A value between −1 and 1 denoted “additivity”) | combinatorial effect with tazemetostat (Loewe volume class) (NCI-H522): Syn. (Loewe volumes greater than 1 denoted “synergy”) | combinatorial effect with tazemetostat (Loewe volume class) (NCI-H661): Anta. (volumes <−1 denoted “antagonism”) | combinatorial effect with tazemetostat (Loewe volume class) (NCI-H838): Syn. (Loewe volumes greater than 1 denoted “synergy”) | combinatorial effect with tazemetostat (Loewe volume class) (Calu-3): Syn. (Loewe volumes greater than 1 denoted “synergy”) | combinatorial effect with tazemetostat (Loewe volume class) (HCC827): Add. (A value between −1 and 1 denoted “additivity”)

C[C@]1(c2nc3c(C(N)=O)cccc3[nH]2)CCCN1 [Veliparib, veliparib]
combinatorial effect with tazemetostat (Loewe volume class) (A427): Syn. (Loewe volumes greater than 1 denoted “synergy”) | combinatorial effect with tazemetostat (Loewe volume class) (A549): No eff. | combinatorial effect with tazemetostat (Loewe volume class) (NCI-H1573): Syn. (Loewe volumes greater than 1 denoted “synergy”) | combinatorial effect with tazemetostat (Loewe volume class) (NCI-H1703): No eff. | combinatorial effect with tazemetostat (Loewe volume class) (NCI-H1793): No eff. | combinatorial effect with tazemetostat (Loewe volume class) (NCI-H1993): No eff. | combinatorial effect with tazemetostat (Loewe volume class) (NCI-H2030): No eff. | combinatorial effect with tazemetostat (Loewe volume class) (NCI-H2110): No eff. | combinatorial effect with tazemetostat (Loewe volume class) (NCI-H2122): Anta. (volumes <−1 denoted “antagonism”) | combinatorial effect with tazemetostat (Loewe volume class) (NCI-H23): No eff. | combinatorial effect with tazemetostat (Loewe volume class) (NCI-H460): Add. (A value between −1 and 1 denoted “additivity”) | combinatorial effect with tazemetostat (Loewe volume class) (NCI-H522): No eff. | combinatorial effect with tazemetostat (Loewe volume class) (NCI-H661): No eff. | combinatorial effect with tazemetostat (Loewe volume class) (NCI-H838): No eff. | combinatorial effect with tazemetostat (Loewe volume class) (Calu-3): No eff. | combinatorial effect with tazemetostat (Loewe volume class) (Calu-6): No eff. | combinatorial effect with tazemetostat (Loewe volume class) (HCC827): Syn. (Loewe volumes greater than 1 denoted “synergy”)

CCCS(=O)(=O)Nc1ccc(F)c(C(=O)c2c[nH]c3ncc(-c4ccc(Cl)cc4)cc23)c1F [Vemurafenib, vemurafenib]
combinatorial effect with tazemetostat (Loewe volume class) (HCC827): No eff.

CNC(=O)Cn1cc(-c2ccc3c(c2)[C@H](F)C[C@]32NC(=O)N(CC(=O)N(Cc3ccc(F)cc3)[C@@H](C)C(F)(F)F)C2=O)cn1 [Cmpd H]
combinatorial effect with tazemetostat (Loewe volume class) (A427): Syn. (Loewe volumes greater than 1 denoted “synergy”) | combinatorial effect with tazemetostat (Loewe volume class) (NCI-H1573): Anta. (volumes <−1 denoted “antagonism”) | combinatorial effect with tazemetostat (Loewe volume class) (NCI-H1793): Syn. (Loewe volumes greater than 1 denoted “synergy”) | combinatorial effect with tazemetostat (Loewe volume class) (NCI-H1993): Syn. (Loewe volumes greater than 1 denoted “synergy”) | combinatorial effect with tazemetostat (Loewe volume class) (NCI-H2110): Add. (A value between −1 and 1 denoted “additivity”) | combinatorial effect with tazemetostat (Loewe volume class) (NCI-H2122): Add. (A value between −1 and 1 denoted “additivity”) | combinatorial effect with tazemetostat (Loewe volume class) (NCI-H23): Anta. (volumes <−1 denoted “antagonism”) | combinatorial effect with tazemetostat (Loewe volume class) (NCI-H460): Syn. (Loewe volumes greater than 1 denoted “synergy”) | combinatorial effect with tazemetostat (Loewe volume class) (NCI-H661): Anta. (volumes <−1 denoted “antagonism”) | combinatorial effect with tazemetostat (Loewe volume class) (NCI-H838): Add. (A value between −1 and 1 denoted “additivity”) | combinatorial effect with tazemetostat (Loewe volume class) (Calu-3): Syn. (Loewe volumes greater than 1 denoted “synergy”) | combinatorial effect with tazemetostat (Loewe volume class) (Calu-6): Add. (A value between −1 and 1 denoted “additivity”) | combinatorial effect with tazemetostat (Loewe volume class) (HCC827): Add. (A value between −1 and 1 denoted “additivity”)

C#Cc1cccc(Nc2ncnc3cc(OCCOC)c(OCCOC)cc23)c1 [Erlotinib, erlotinib]
combinatorial effect with tazemetostat (Loewe volume class) (HCC827): Syn. (Loewe volumes greater than 1 denoted “synergy”)
